The test system of assay [1] is PDL1. Briefly: PDL1 expression by flow cytometry in melanoma cell lines treated with HDACi. The assay is classed as cell-based. The conditions noted are these: two murine and five human melanoma cell lines, up to 72 hours, relative to DMSO; FIG. 22. The protocol: B16, WM983A, Sk-Mel21, WM1366, WM35, and WM793 melanoma cells lines were treated with DMSO (“D”), 10 nM LBH589 (“LB”), 500 nM MGCD0103 (“MG”), or 500 nM MS275 (“MS”) for 72 hours. PDL1 expression was assessed by flow cytometry. Histograms shown are for PDL1 expression or autofluorescence (solid grey) of 10,000 cells or more.
Melanoma cell lines were treated with DMSO, 10 nM LBH589 (squares), 1.5 μM ACY1215 (triangles), 500 nM MS275 (diamonds), 500 nM CLB66 (circles), or 500 nM MGCD0103 (X). PDL1 expression at indicated time points was assessed by flow cytometry. Voltages between time point measurements was standardized using rainbow beads with standard emissions. Mean fluorescence intensity minus autofluorescencee is graphed for each time point. DMSO treatment was plotted as zero hours.
In this Example, HDACi targeting class I HDACs, but not class II, is shown to augment expression of PDL1 in melanoma cells. Two murine and five human melanoma cell lines were treated for up to 72 hours with DMSO, LBH589 (pan-HDACi), MS275 (class I inhibitor), MGCD0103 (class I inhibitor), an HDAC6 specific inhibitor, or a class IIa inhibitor (FIG. 21). […] Increased expression was noted as early as 24 hours after treatment and peaked at 72 to 96 hours post-treatment (FIG. 23).
(In general: A flow cytometer gives signals particle by particle.)

The subject of assay [2] is PDL1. Briefly: PDL1 expression in B16 tumors of LBH589-treated mice (flow cytometry). Type of assay: in vivo, C57BL/6 mice. The conditions noted are these: 15 mg/kg IP Mon, Wed, Fri, one week, FIG. 24. The protocol:
C57BL/6 mice were injected subcutaneously with 100,000 B16 cells. When tumors became palpable, treatment with 15 mg/kg LBH589 via IP injection began on a Mon, Wed, Fri schedule. After one week of treatment, mice were sacrificed, tumors harvest and analyzed by flow cytometry for PDL1 expression.

The subject of a further assay is B16 melanoma cells. The assay is described as follows: In vivo growth of B16 melanoma in C57BL/6 mice treated with HDAC6 inhibitors. The conditions noted are these: wild type B16 melanoma cells in C57BL/6 mice, treated daily with 20 mg/kg; FIG. 7B. From the text: Pan-HDAC inhibitors (pan-HDACi) slows the proliferation and improves the immunogenicity of melanoma cells (Woods, D. M., et al. Melanoma Res (2013)). However, the non-selective nature of pan-HDACi makes the assumption of the specific participation of HDACs on these processes impossible. […] The next step was identifying if HDAC6KD would affect the growth of melanoma cells in vivo. […] A similar result was obtained in another experiment injecting wild type B16 melanoma cells into C57BL/6 mice treated daily with 20 mg/kg of the HDAC6inh Nexturastat A or Nexturastat B (FIG. 7B). The amount of PDL1 and activation of STAT3 was decreased in tumors isolated after the in vivo treatment with HDAC6inh (FIG. 7C).
These in vitro results were further supported by in vivo tumor growth studies. […] A similar outcome was identified after inoculation of HDAC6KD B16 melanoma cells in C57BL/6 mice (FIG. 14A). […] This delay in tumor growth could be a reflection of their diminished proliferation and an increase in their immunogenicity leading to improved immune recognition and clearance. These studies provide critical insights into the molecular pathways that are involved in the regulatory role of HDAC6 in cell proliferation, survival, and cytokine signaling of human melanoma cells.

The next assay concerns B16 WT melanoma. Briefly: In vivo growth of B16 WT melanoma in SCID mice treated with HDAC6 inhibitor. As to conditions: FIG. 14A. The protocol:
FIGS. 14A and 14B show differences in growth of melanoma cells after HDAC6 inhibition in altered immune systems. […] Mice were treated with antibodies to deplete CD4, CD8, and NK cells.

In the next assay the test system is Multiple Myeloma. The conditions noted are these: preliminary studies (Santo et al. 2012); cited from earlier work.
Another assay relates to HDAC6. Briefly: Recruitment of HDAC6 to the IL-10 promoter. Type of assay: cell-based. The conditions noted are these: cells treated with STAT3 inhibitor. From the text: HDAC6 is recruited to regulatory sequences in gene promoters such as MYC (Toropainen, S., et al. J Mol Biol. 400:284-294 (2010)), glucocorticoid receptor (Govindan, M. V. J Biol Chem. 285:4489-4510 (2010)) and estrogen receptor a-inducible genes (Palijan, A., et al. J Biol Chem. 284:30264-30274 (2009)). However, there is no evidence showing that HDAC6 is directly affecting the acetylation status of chromatin. […] Thus, the transcriptional regulatory effects observed for HDAC6 could be mediated by other regulatory factors recruited along with this deacetylase to specific DNA sequences. […] HDAC6 and STAT3 are recruited to the same region of the IL-10 promoter, and the recruitment of HDAC6 is impaired when cells are treated with the STAT3 inhibitor CPA-7.

In the case of `Cc1[nH]c2ccccc2c1CCNCc1ccc(/C=C/C(=O)NO)cc1` [LBH589], in the assay on PDL1 [1], the PDL1 expression result was “dose dependent, increases”. For the same compound, the “PDL1 expression in vivo” value in the assay on PDL1 [2] is listed as “upregulates”.

For `Nc1ccccc1NC(=O)c1ccc(CNc2nccc(-c3cccnc3)n2)cc1` [MGCD0103], the PDL1 expression result in the assay on PDL1 [1] was “dose dependent, increases”.

As for `CCCCN(Cc1ccc(C(=O)NO)cc1)C(=O)Nc1ccccc1` [Nexturastat A], the tumor growth entry in the assay with B16 melanoma cells is listed as “delayed tumor growth”.

`CCCCN(Cc1ccc(C(=O)NO)cc1)C(=O)Nc1ccc2cn[nH]c2c1` [Nexturastat B]: in the assay with B16 WT melanoma, the “in vivo growth of B16 WT melanoma” value is listed as “not significantly different”. Moreover, in the assay on B16 melanoma cells, the tumor growth result is reported as “delayed tumor growth”.

For the compound `O=C(CCCCCCNC(=O)c1cnc(N(c2ccccc2)c2ccccc2)nc1)NO` [ACY1215], the anti-tumor activity entry in the assay with Multiple Myeloma was “important anti-tumor activity”.

Take `Nc1ccccc1NC(=O)c1ccc(CNC(=O)OCc2cccnc2)cc1` [MS275]: the PDL1 expression entry in the assay with PDL1 [1] is reported as “dose dependent, increases”.

For the compound CPA-7, the “recruitment of HDAC6 to the IL-10 promoter” value in the assay with HDAC6 is “impaired”.

Values taken from US10576066B2, “Histone deacetylase as a modulator of PDLI expression and activity” (H. LEE MOFFITT CANCER CENTER AND RESEARCH INSTITUTE, INC., priority 2014, dated 2020).
